These are literature values, as cited in patent US10232018B2, “ACTH for treatment of acute respiratory distress syndrome” (MALLINCKRODT ARD IP LIMITED, priority 2013, dated 2019).

The conditions of data set [1]: Baumann and Felber, 1976.

For the substance “ACTH1-23: ACTH fragment 1-23, partial agonist in Hofmann et al. (1970) (SYSMEHFRWGKPVGKKRRPVKVY; Corticotropin; UniProt P01189 138-160, looked up, fragment)”, the “partial agonist activity in adrenal stimulation assays in comparison to ACTH1-24 as control” value in the data set on adrenal stimulation is recorded as 91%.

As for “human 1-39: human ACTH 1-39 (SYSMEHFRWGKPVGKKRRPVKVYPNGAEDESAEAFPLEF; Corticotropin; UniProt P01189 138-176, looked up)”, the “duration of action compared with 1-24” value in data set [1] is recorded as “longer duration of action”.
